The values below are quoted from earlier work in article PMC9959244, “Revisiting the Solubility–Permeability Relationship with Hydrophobic Drug Umifenovir in Pluronic Solutions: Impact of pH and Co-Solvent” (Pharmaceutics, 2023).

Where two headings read alike, the source gives them in different places.

On the set-up of series [1]: method as in doi:10.1016/S1773-2247(07)50022-5. To be noted: cited from earlier work.
Details of series [2]: method as in PMID 33926020. To be noted: kneaded ternary complex with β-cyclodextrin and 1% poloxamer 188; cited from earlier work.

Consider `CCOC(=O)c1c(CSc2ccccc2)n(C)c2cc(Br)c(O)c(CN(C)C)c12.Cl` [arbidol hydrochloride], for which the “Increase of dissolution at 3 min vs pure compound” value is on record as 14.0 fold in series [1] (solid dispersion with PEG 4000) and 15.4 fold in series [1] (solid dispersion with PEG 8000). Besides, the “Percent concentration after 3 min of dissolution” value was 53.6% in series [1] (solid dispersion with PEG 4000) and 59.0% in series [1] (solid dispersion with PEG 8000). The Solubility increase in series [2] was 13.1 fold.
